{"source": "patent US20210023065A1", "about": "“AMPHIPHILIC THIOL COMPOUNDS AND USES THEREOF” (THE REGENTS OF THE UNIVERSITY OF CALIFORNIA, priority 2018, published 2021)", "molecular_target": "T1, lyric/metadherin (Homo sapiens, UniProt Q86UE4)", "T1 construct": "we detected the palmitoylation levels of eight known palmitoylated proteins after treatment with 1; endogenous in cells; host or cells: HeLa", "T1 sequence (Q86UE4 1-582)": "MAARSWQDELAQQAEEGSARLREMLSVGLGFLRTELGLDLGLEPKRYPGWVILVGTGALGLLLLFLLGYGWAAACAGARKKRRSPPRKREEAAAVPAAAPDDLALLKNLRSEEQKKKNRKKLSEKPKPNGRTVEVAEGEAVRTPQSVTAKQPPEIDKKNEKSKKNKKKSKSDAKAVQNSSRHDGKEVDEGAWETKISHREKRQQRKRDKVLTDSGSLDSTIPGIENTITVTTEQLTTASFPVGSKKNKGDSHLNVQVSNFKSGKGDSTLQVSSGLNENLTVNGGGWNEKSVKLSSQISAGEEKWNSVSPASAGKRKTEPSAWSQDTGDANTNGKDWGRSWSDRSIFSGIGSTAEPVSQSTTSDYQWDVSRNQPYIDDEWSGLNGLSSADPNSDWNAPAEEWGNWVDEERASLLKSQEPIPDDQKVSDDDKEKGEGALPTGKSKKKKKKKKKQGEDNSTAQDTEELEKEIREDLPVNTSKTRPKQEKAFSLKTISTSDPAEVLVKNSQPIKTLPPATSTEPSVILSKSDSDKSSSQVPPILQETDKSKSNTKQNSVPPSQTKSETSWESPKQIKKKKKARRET", "test": "Acyl resin-assisted capture detection of lyric/metadherin palmitoylation in HeLa cells", "assay_type": "cell-based", "settings": "1.25 μmol/10^7 cells, relative to vehicle", "procedure": "HeLa cells were grown to confluency in 10 cm plates. Stock solutions of compounds were prepared in DMSO as before and diluted to the final indicated concentration in 5.5 mL of OptiMEM media before adding to cells. Cells were incubated at 37° C. for 20 min and then media removed and 3 mL of HBSS added to each plate. Cells were detached using a cell scraper, pelleted by centrifugation at 1,000 rcf for 5 min and the pellet processed using a CAPTUREome S-Palmitoylated Protein Kit (Badrilla, UK) according to the manufacturer's protocol. Samples were resolved by electrophoresis using 4-20% SDS-polyacrylamide gels (Bio-Rad) under denaturing and reducing conditions. Proteins were then electrotransferred to a PVDF membrane (Bio-Rad). […]\nAssays were performed in 3 biological replicates. […] Western blots were analyzed using ImageJ^1. […]", "data": [{"smiles": "CCCCCCCCNC(=O)[C@@H](N)CS", "note": "[compound 1, H2N-L-Cys-Oct]", "values": [{"measurement": "reduction of palmitoylation level of lyric/metadherin", "result": "> 80", "unit": "%"}]}]}
